This passage reports residual activity results from ChEMBL document CHEMBL1152560, “Substituted 2-arylbenzothiazoles as kinase inhibitors: hit-to-lead optimization” (Bioorg Med Chem, 2009).

In experiment [1] the target is T1, Ephrin type-B receptor 1 (Homo sapiens) (UniProt P54762).
T1 sequence (whole entry): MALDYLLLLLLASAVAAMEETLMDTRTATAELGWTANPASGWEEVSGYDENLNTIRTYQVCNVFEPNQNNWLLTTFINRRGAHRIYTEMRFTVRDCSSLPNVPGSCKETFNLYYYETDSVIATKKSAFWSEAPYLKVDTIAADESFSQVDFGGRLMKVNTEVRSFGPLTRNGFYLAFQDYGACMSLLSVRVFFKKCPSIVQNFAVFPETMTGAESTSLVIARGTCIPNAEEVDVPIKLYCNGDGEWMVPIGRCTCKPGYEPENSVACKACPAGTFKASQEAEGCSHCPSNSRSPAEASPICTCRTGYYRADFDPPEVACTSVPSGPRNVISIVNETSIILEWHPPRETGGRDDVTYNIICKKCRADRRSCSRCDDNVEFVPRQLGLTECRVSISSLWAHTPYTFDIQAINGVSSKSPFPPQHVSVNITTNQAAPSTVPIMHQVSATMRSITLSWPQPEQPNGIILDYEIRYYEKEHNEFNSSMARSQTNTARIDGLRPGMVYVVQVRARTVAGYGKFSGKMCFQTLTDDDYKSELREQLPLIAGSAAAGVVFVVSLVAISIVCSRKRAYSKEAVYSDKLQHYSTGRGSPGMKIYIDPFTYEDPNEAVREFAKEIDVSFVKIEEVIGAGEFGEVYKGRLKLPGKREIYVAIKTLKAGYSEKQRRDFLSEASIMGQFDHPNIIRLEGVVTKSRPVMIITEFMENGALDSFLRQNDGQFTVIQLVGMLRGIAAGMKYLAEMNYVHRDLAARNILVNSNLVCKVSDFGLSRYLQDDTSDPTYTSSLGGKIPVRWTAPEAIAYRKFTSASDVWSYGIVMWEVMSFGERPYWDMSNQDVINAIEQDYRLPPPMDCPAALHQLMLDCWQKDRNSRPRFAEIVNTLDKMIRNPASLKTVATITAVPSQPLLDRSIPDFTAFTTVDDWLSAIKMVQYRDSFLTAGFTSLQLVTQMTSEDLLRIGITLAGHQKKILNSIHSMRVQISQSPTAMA
The experiment is described as follows: Residual activity of EPHB1 at 10 uM by microplate scintillation counting.

Experiment [2] concerns the target Mitogen-activated protein kinase 1 (Homo sapiens) (UniProt P28482). The experiment is described as follows: Residual activity of ERK2 at 10 uM by microplate scintillation counting.
The target of experiment [3] is G protein-coupled receptor kinase 6 (Homo sapiens) (UniProt P43250). The experiment is described as follows: Residual activity of GRK6 at 10 uM by microplate scintillation counting.
Experiment [4] addresses T2, Aurora kinase C (Homo sapiens) (UniProt Q9UQB9).
T2 sequence (whole entry): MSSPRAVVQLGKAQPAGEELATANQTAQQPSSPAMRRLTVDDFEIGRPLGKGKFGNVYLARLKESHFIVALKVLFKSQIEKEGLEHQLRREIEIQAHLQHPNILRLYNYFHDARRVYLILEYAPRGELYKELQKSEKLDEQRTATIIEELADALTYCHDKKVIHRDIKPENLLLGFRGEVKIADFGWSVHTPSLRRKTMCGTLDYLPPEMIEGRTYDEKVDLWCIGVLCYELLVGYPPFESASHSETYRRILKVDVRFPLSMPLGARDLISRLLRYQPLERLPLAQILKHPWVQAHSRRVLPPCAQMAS
Briefly: Residual activity of Aurora-C at 10 uM by microplate scintillation counting.

The target of experiment [5] is Aurora kinase B (Homo sapiens, UniProt Q96GD4). Briefly: Residual activity of Aurora-B at 0.1 uM by microplate scintillation counting.
Experiment [6] has as its target CDK1/Cyclin A (Homo sapiens) (UniProt P06493+P20248). Briefly: Residual activity of CDK1/Cyclin A at 0.1 uM by microplate scintillation counting. Format: protein-complex assay.
The target in experiment [7] is Serine/threonine-protein kinase PAK 2 (Homo sapiens) (UniProt Q13177). The experiment is described as follows: Residual activity of PAK2 at 0.1 uM by microplate scintillation counting.
For experiment [8], the target named is Protein kinase C beta type (Homo sapiens) (UniProt P05771). Briefly: Residual activity of PKCbeta1 at 0.1 uM by microplate scintillation counting.
Experiment [9] addresses T3, Serine/threonine-protein kinase 17A (Homo sapiens) (UniProt Q9UEE5).
T3 sequence (whole entry): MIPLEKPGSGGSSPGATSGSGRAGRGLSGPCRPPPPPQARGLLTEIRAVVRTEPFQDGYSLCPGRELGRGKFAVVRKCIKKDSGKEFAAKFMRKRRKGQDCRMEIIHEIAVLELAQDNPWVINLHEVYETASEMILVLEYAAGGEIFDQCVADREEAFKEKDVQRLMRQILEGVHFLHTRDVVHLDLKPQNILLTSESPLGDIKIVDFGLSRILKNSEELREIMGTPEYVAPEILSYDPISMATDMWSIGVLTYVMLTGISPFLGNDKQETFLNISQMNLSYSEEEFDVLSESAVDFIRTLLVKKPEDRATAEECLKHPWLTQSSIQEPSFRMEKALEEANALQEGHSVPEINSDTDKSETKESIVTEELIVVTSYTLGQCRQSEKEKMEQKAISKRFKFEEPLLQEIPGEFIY
The experiment is described as follows: Residual activity of STK17A at 0.1 uM by microplate scintillation counting.

Chain of Protein kinase C beta type (Homo sapiens) (P05771 2-671 limits assumed): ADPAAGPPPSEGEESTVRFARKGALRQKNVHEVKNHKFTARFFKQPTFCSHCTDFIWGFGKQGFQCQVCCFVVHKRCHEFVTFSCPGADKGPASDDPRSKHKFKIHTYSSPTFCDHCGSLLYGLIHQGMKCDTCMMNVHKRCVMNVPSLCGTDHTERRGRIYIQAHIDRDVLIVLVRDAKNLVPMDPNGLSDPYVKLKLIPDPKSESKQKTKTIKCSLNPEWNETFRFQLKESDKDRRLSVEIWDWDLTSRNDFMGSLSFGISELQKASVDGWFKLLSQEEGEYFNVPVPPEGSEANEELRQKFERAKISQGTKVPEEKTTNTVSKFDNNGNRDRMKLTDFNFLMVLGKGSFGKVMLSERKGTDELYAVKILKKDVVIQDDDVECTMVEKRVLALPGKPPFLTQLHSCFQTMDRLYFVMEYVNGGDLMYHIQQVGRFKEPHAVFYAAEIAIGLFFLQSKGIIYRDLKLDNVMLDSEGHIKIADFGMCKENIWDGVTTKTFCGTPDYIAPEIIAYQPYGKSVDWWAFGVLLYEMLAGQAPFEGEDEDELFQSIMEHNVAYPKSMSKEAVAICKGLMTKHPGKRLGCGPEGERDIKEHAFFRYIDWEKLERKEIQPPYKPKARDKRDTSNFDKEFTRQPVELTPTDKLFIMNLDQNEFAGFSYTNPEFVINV
Chain of Mitogen-activated protein kinase 1 (Homo sapiens) (P28482 whole entry): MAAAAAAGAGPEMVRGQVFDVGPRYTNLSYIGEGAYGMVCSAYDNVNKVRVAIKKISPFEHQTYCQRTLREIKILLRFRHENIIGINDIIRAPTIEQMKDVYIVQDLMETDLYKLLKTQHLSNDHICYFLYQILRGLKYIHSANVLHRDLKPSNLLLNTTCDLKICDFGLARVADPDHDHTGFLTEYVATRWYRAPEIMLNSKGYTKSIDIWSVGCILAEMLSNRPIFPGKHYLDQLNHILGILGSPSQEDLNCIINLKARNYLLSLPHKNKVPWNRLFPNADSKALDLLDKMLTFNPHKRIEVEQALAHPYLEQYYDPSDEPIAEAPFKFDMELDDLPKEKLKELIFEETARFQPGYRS
Chain of Serine/threonine-protein kinase PAK 2 (Homo sapiens) (Q13177 whole entry): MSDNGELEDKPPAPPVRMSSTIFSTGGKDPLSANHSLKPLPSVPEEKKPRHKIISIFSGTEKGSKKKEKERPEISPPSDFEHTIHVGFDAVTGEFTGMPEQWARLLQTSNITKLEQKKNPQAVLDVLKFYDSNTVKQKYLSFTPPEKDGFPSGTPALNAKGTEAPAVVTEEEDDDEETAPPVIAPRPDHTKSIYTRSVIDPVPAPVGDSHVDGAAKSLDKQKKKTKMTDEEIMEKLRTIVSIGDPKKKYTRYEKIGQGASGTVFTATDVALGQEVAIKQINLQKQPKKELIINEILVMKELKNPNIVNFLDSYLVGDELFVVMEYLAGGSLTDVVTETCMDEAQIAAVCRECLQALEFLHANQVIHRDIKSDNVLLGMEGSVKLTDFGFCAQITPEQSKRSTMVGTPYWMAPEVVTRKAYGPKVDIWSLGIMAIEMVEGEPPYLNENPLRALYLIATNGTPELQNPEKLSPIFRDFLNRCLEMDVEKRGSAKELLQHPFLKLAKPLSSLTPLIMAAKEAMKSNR
Chain of G protein-coupled receptor kinase 6 (Homo sapiens) (P43250 whole entry, looked up): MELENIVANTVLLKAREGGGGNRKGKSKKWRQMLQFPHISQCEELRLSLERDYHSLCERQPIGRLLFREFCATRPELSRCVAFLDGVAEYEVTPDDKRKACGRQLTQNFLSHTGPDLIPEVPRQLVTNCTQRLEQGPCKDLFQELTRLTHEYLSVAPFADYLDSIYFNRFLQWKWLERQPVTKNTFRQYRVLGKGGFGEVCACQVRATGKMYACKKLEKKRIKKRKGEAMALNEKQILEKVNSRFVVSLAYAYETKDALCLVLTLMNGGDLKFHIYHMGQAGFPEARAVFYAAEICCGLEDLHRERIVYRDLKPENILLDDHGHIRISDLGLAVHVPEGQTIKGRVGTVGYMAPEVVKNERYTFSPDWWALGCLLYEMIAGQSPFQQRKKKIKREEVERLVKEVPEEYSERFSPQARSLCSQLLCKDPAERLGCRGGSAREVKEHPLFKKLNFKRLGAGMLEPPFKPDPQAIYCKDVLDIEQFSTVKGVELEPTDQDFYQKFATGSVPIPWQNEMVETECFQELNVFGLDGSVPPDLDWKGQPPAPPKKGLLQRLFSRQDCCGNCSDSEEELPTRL
Chain of Aurora kinase B (Q96GD4 whole entry): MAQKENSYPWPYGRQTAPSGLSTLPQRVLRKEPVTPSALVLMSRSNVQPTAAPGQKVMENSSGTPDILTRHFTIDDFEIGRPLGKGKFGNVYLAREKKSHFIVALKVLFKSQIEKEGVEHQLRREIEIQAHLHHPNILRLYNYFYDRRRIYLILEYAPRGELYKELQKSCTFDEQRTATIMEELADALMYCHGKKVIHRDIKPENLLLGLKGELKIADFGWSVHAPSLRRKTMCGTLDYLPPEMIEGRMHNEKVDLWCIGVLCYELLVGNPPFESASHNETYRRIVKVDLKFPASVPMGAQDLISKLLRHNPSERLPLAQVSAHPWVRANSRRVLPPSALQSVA
Chain of CDK1/Cyclin A (Homo sapiens) (P06493 whole entry, looked up): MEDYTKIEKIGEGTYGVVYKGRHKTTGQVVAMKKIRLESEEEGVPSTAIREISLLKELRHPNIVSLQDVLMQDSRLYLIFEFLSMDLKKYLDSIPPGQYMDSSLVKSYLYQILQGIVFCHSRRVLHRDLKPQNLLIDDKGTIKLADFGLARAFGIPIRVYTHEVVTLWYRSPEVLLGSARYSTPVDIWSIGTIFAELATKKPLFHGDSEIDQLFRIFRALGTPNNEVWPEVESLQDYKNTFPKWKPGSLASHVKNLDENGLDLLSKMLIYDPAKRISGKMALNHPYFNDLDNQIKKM
Chain of CDK1/Cyclin A (Homo sapiens) (P20248 whole entry, looked up): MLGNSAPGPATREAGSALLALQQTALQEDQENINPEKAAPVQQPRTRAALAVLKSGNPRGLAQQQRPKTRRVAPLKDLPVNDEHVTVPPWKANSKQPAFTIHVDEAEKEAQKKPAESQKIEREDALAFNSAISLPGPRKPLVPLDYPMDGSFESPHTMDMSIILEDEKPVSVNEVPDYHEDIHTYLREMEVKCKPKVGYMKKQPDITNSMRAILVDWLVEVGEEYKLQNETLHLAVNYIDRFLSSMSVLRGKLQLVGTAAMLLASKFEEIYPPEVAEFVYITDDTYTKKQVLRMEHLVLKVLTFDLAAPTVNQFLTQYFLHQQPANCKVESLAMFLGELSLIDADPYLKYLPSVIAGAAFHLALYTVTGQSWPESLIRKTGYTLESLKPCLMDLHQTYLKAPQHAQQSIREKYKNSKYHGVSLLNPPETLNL

With `COc1cc2c(Oc3ccc(-c4nc5ccccc5s4)cc3)ncnc2cc1OCCCN1CCCC1`, the residual activity is 223% in [1]; 144% in experiment [2]; 105% in experiment [3]; 1% in [4]; 48% in experiment [5]; 109% in experiment [6]. The residual activity in [7] amounted to 93%; in experiment [8], 102%; in experiment [9] it was 66%.
In the case of `COc1cc2c(Oc3ccc(-c4nc5ccccc5s4)cc3F)ncnc2cc1OCCCN1CCN(C)CC1`, the residual activity came out at 124% in [1]; 163% in experiment [2]; 104% in [3]; 2% in experiment [4]; 45% in experiment [5]; 99% in [6]. Besides, the residual activity in [7] was 97%; in experiment [8], 109%; in experiment [9] it was 87%.
As to `COc1cc2c(Oc3ccc(-c4nc5ccccc5s4)cc3)ncnc2cc1OCCCN1CCN(C)CC1`, the residual activity in [1] is 429%; in [2] it was 161%; in [3], 91%; in experiment [4], 0%; in [5], 40%; in experiment [6], 94%. The residual activity in [7] was 111%; in experiment [8], 100%; in experiment [9] it was 66%.
